# Results published in publication PMC6968383, “Design, synthesis, in vitro and in vivo evaluation of benzylpiperidine-linked 1,3-dimethylbenzimidazolinones as cholinesterase inhibitors against Alzheimer’s disease” (Journal of Enzyme Inhibition and Medicinal Chemistry, 2019).
# Where two headings read alike, the source gives them in different places.
# Experiments:
# [1] = assay type: in vivo; conditions: serum, tacrine 30 mg kg−1, mean ± SEM n = 6
# Experimental: . Heparinised serum was obtained after the treatment of 15b and 15j at 8, 22, and 36 h, respectively. The serum levels of ALT and AST are directly proportional to the severity of the liver damage. […]
# [2] = test system: scopolamine-induced cognition impairment in ICR mice; test: Morris water maze test, scopolamine-induced cognition impairment; assay type: in vivo; conditions: oral 15 mg kg−1, scopolamine 1 mg kg−1 ip, probe trial on sixth day, mean ± SEM n = 6
# Experimental: The test included 5 days of learning and memory training and a probe trial on the sixth day.
# Scopolamine hydrobromide was supplied by Aladdin Reagents (H1507073, Shanghai, China).
# Cognitive function was evaluated by the Morris water maze analysis-management system (SMART 3.0, Panlab, Madrid, Spain), according to the method previously described[30].The maze was placed in a lit room with visual cues at 25 °C. An escape platform (10 cm diameter) was located in the centre of one quadrant of the circular pool (120 cm diameter, 60 cm height) with a depth of 40 cm water. The behavioural study of each mouse included 5 days of learning and memory training and a probe trial on day 6. The animal starting positions faced to the pool wall, and were pseudorandomised for each trial. For the cognitive evaluation, each mouse was individually evaluated on both visible-platform (days 1–2) and hidden-platform (days 3–5) versions of the water maze. All mice received nonspatial pretraining during the first two training days, which prepared them for the subsequent spatial learning test. During the two days, mice were trained to find the platform that was labelled by a small flag (5 cm tall). The hidden platform version was used to determine the retention of memory to find the platform. During the hidden-platform training trials, the escape platform was placed 1 cm below the surface of the water. On each day, the animal was subjected to two trials, each of which lasted for 90 s. The time for the mouse to find the platform (a successful escape) was recorded. […] On the last day (day 6), the platform was removed from its location and the animals were given a probe trial in which they had 90 s to search for the platform. The time taken to reach the missing platform and the number of times the animals crossed the platform location were recorded.
# Data for the time of escape latency, the trajectory travelled, and the number of platform location crossings were recorded by SMART 3.0, Panlab, Madrid, Spain and processed by GraphPad Prism 6.0.
# liver = test: Liver histopathological study (HE staining); conditions: 36 h after administration, compared to control group
# Excerpt: Figure 7. […] HE staining, original magnification ×200.
# [3] = molecular target: T1, AChE (EC 3.1.1.7) from electric eel (Electrophorus electricus, UniProt O42275); test: biochemical; assay type: biochemical; conditions: for SI (selectivity index = AChE IC50/BChE IC50): eeAChE IC50 / eqBChE IC50
# T1 construct: purchased Sigma-Aldrich
# T1 sequence (O42275 24-633): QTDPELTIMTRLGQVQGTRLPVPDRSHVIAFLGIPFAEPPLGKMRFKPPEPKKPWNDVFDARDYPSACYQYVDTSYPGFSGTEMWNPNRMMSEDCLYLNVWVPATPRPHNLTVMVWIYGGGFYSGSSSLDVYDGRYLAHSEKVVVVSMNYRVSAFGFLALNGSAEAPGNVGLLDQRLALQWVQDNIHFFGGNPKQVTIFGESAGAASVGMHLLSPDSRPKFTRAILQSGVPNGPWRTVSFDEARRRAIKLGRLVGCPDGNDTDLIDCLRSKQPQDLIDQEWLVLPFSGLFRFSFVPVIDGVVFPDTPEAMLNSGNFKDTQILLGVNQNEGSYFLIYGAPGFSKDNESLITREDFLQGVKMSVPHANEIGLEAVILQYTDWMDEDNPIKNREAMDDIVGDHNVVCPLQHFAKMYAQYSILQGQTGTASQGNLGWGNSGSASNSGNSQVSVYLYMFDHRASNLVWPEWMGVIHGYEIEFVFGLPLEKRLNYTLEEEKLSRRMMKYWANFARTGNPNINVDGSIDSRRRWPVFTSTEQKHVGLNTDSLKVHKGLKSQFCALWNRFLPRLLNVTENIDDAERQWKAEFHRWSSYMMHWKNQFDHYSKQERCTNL
# Experimental: (§1) The data were expressed as IC50 values (Table 1).
# (§2) The inhibitory activities of the target compounds towards AChE (from Electrophorus electricus (electric eeAChE, Sigma-Aldrich) and horse serum BChE (eqBChE, Sigma-Aldrich) or human AChE – huAChE; human BuChE – huBuChE (huAChE, huBuChE, Sigma-Aldrich) were measured by Ellman’s method. In 96-well plates, a mixture of phosphate buffer (0.1 M, pH 8.0, […]), 5,5′-dithiobis-2-nitrobenzoic acid (DTNB, 60 µL), acetylcholinestrase or butyrylcholinesterase (20 µL, 5 IU/mL) and different concentration of the compound solution (30 µL) was pre-incubated for 5 min followed by the addition of the substrate (acetylthiocholine iodide or butyrylthiocholine iodide, 20 µL). […] The measurement of each concentration for each compound was detected in triplicate. GraphPad Prism 6.0 (GraphPad Software, Inc., La Jolla, CA) was used for data processing. The inhibition curve was fitted by plotting percentage enzyme activity (100% for the reference) versus the logarithm of the concentration of tested compound. The half-maximal inhibitory concentration (IC50) values were calculated according to the inhibition curve and the data were shown in the layout of mean ± SEM by GraphPad Prism 6.0.
# [4] = molecular target: T2, BChE (EC 3.1.1.8) from horse serum (Equus caballus, UniProt P81908); test: biochemical; conditions: eqBChE; for IC50: mean ± SEM of triplicate independent experiments, read-out: BChE IC50
# T2 construct: horse serum BChE (eqBChE, Sigma-Aldrich); purchased Sigma-Aldrich; host or cells: horse serum
# T2 sequence (P81908 whole entry): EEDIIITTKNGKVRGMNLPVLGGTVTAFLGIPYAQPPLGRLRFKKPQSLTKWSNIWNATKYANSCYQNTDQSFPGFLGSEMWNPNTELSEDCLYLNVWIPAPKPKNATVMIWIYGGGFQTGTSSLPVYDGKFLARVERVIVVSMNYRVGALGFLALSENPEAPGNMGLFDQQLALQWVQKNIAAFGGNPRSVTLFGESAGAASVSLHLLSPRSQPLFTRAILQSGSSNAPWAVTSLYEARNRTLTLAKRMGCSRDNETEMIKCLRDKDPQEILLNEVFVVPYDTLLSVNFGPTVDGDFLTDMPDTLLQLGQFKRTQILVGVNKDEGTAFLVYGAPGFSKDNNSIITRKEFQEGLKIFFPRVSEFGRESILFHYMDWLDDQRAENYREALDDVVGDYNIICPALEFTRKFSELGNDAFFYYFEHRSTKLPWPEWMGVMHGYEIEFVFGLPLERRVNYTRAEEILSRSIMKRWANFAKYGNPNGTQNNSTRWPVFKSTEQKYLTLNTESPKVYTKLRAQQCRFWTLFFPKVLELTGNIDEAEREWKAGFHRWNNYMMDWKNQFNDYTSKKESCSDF
# Experimental: as §1, §2
# [5] = eeAChE, mean ± SEM of triplicate independent experiments, read-out: AChE IC50
smiles,measurement,setting,value
Nc1c2c(nc3ccccc13)CCCC2 [Tacrine],ALT,[1]; 8 h after treatment,32.7 ± 1.7 U/L
same,AST,[1]; 8 h after treatment,95.1 ± 9.5 U/L
same,ALT,[1]; 22 h after treatment,31.7 ± 1.2 U/L
same,AST,[1]; 22 h after treatment,108.9 ± 6.1 U/L
same,ALT,[1]; 36 h after treatment,35.8 ± 6.7 U/L
same,AST,[1]; 36 h after treatment,110.4 ± 9.4 U/L
same,Distance to target,[2],310.01 ± 9.54 cm
same,Latency to target,[2],12.06 ± 0.37 s
same,morphologic changes in liver,liver,did not result in remarkable morphologic changes in liver
"O=C(NCC1CCN(Cc2ccccc2Cl)CC1)c1ccc2[nH]cnc2c1 [Compound 11e, N-((1–(2-chlorobenzyl)piperidin-4-yl)methyl)-1H-benzo[d]imidazole-5-carboxamide]",IC50,[3],7480 ± 3100 nM
same,inhibition at 100 µM,"[4]; compound at 100 μM, read-out: BChE IR (inhibitory rate)",42.1%
"Cn1c(=O)n(C)c2cc(S(=O)(=O)NCC3CCN(Cc4cccc(Cl)c4)CC3)ccc21 [Compound 15g, N-((1–(3-chlorobenzyl)piperidin-4-yl)methyl)-1,3-dimethyl-2-oxo-2,3-dihydro-1H-benzo[d]imidazole-5-sulphonamide]",SI (selectivity index = AChE IC50/BChE IC50),[3],0.15
same,IC50,[3]; [5],150 ± 20 nM
same,IC50,[4],1010 ± 460 nM
"Cn1c(=O)n(C)c2cc(S(=O)(=O)NCC3CCN(Cc4ccc(Cl)cc4)CC3)ccc21 [Compound 15h, N-((1–(4-chlorobenzyl)piperidin-4-yl)methyl)-1,3-dimethyl-2-oxo-2,3-dihydro-1H-benzo[d]imidazole-5-sulphonamide]",SI (selectivity index = AChE IC50/BChE IC50),[3],0.87
same,IC50,[3]; [5],1950 ± 280 nM
same,IC50,[4],2230 ± 810 nM
